# Test results reported in paper PMC11134331, “Cell-active small molecule inhibitors validate the SNM1A DNA repair nuclease as a cancer target” (Chemical Science, 2024).
# What was measured:
# [1] = target: T1, SNM1B (Homo sapiens, UniProt Q9H816); test: real-time fluorescence-based nuclease assay, SNM1B; assay type: biochemical
# T1 construct: for the MBL and β-CASP domains of SNM1B (aa 1–335) into baculoviral expression vectors pFB-CT10HF-LIC; made in house; host or cells: Sf9 insect cells (baculovirus)
# T1 sequence (Q9H816 1-335): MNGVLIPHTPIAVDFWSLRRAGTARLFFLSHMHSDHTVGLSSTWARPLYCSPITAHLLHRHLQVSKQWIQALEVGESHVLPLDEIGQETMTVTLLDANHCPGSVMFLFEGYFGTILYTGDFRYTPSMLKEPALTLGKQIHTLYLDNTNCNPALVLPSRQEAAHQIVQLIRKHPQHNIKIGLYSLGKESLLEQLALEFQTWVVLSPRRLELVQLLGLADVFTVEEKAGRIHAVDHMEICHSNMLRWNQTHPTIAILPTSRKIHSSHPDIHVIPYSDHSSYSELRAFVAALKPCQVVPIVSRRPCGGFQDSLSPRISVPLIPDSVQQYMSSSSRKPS
# Protocol: There is structural similarity between SNM1A, SNM1B, and SNM1C and major mechanistic features are likely conserved between the three nucleases. We therefore tested (13) and other hydroxamic acid analogues for inhibition of SNM1B and SNM1C. Due to differences in catalytic turnover between the three enzymes, different concentrations of SNM1B (1 nM) and SNM1C (2.5 nM) were used compared to that for SNM1A (0.5 nM) in the assays. Note that the substrate utilised for the high-throughput fluorescence based and subsequent SNM1A and SNM1B assays differed slightly for SNM1C reflecting its (primarily) endonucleolytic, rather than exonucleolytic, activity (ESI Fig. 9 ^†).
# Fluorescence-based nuclease digestion SNM1A–C assays were performed as described.[30,45] […] Fluorescence was measured using a PHERAstar FSX fluorescent plate reader in fluorescent top read mode using excitation at 495 nm, emission at 525 nm, and cutoff at […]. Fluorescence spectra were measured every 140 s, for 35 min, at 37 °C. The fluorescence intensity of each well was plotted against compound concentration and fitted using a log (inhibitor) response curve using GraphPad Prism software (GraphPad Software, Inc., La Jolla, CA, USA).
# [2] = test system: SNM1A- cells generated in U2OS background; test: clonogenic survival assay, SNM1A- U2OS cells; assay type: cell-based, human; details: 50 μM compound
# Protocol: (§1) Clonogenic assays were performed in 10 cm tissue culture dishes (for RPE-1 cells, U2OS cells and derived clones). Cells (1000 per dish) were seeded in complete media (10 mL) and allowed to attach overnight, then treated with cisplatin or cisplatin plus inhibitor for the times stated. Following treatments, cells were allowed to grow and form colonies for 10 days. Colonies formed were stained with Coomassie R250 (Sigma) and counted on a COLCount Colony Counter (Oxford Optronix). All experiments represent the mean (±SEM) of at least three biological repeats of duplicate dishes/flasks for each treatment.
# [3] = test system: U2OS (osteosarcoma) cells; test: clonogenic survival assay, U2OS cells; assay type: cell-based, human
# Protocol: as §1
# [4] = test system: γH2AX and EGFP-SNM1A foci in U2OS cells; test: microscopic analysis of damage-induced subnuclear foci, U2OS cells expressing EGFP-SNM1A; assay type: cell-based, human
# Protocol: To this end, cells stably expressing N-terminally EGFP-tagged SNM1A (EGFP-SNM1A) were treated with 50 μM cisplatin alone, 19 (50 μM), or with a combination of both compounds. It is known that on treatment of cells with DNA crosslinking agents, SNM1A forms subnuclear foci that are associated with ongoing sites of DNA repair.[37] […] As previously established, cisplatin treatment efficiently induces co-localisation of EGFP-SNM1A foci and γH2AX foci within 4 hours following treatment, marking sites of cisplatin damage and its repair (Fig. 6C–E). These largely resolved 24 hours post-treatment, again consistent with previous studies.[16,37] Co-treatment of cells with 19 and cisplatin saw a robust induction of SNM1A foci, consistent with the SNM1A activity being dispensable for its localisation to sites of crosslink repair, and γH2AX foci formation (Fig. 6C–E). […] This clear persistence of repair intermediates and trapping of EGFP-SNM1A at the sites of these repair intermediate implies that 19 engages with SNM1A in a cellular context, delaying the completion of cisplatin crosslink repair, which, in turn, results in the sensitisation of cells to cisplatin.
# To assess the number of nuclear foci following cisplatin/inhibitor treatments, cells were plated in glass bottom dishes (as above) and allowed to attach. Following treatment, cells were fixed with 4% (v/v) formaldehyde in PBS, blocked with immunofluoresence (IF) blocking buffer (5% horse serum, 1% saponin in PBS) for 1 h, then incubated with primary antibodies at the desired concentrations in IF blocking buffer (overnight, 4 °C). After washing cells three times with PBS, cells were incubated with secondary antibodies for 2–4 hours in IF blocking buffer, washed a further 3 times with PBS then stained with Hoechst 333 258 (1 μg mL^−1 in PBS) for 30 minutes before a further three washes (all washes and incubations were performed at room temperature, unless otherwise stated).
# Confocal images were obtained with a Plan APO 63X 1.40NA oil immersion objective, a pinhole setting of 1 AU, bandpass emission settings of 410–468 nm for Hoechst, 490–544 nm for EGFP, 579–624 nm for RFP or Alexa 568, and 633–695 nm for Alexa 647, a projected pixel dimension of around 110 nm × 110 nm, a pixel dwell time of 1.35 μs, and with a line averaging setting of 2. In order to ensure sufficient cell numbers (N > 300), images were acquired in a tiled 5 × 5 format corresponding to an image area of about 0.65 mm × 0.65 mm. Images were imported into ImageJ and foci were counted using a macro adjusting for staining levels between experiments. Anti-γH2AX antibodies were a mouse monoclonal (Millipore; JBW301).
structure (smiles),measurement,setting,value
C[C@H](Nc1nc(NCc2ccco2)nc2ccc(Cl)cc12)C(=O)NO [compound 19],IC50,[1],2500 nM
same,effect on cisplatin sensitivity,[2],similarly sensitive to cisplatin treatment in the presence or absence of 19
same,effect on cisplatin cytotoxicity,"[3]; U2OS wild-type, 50 μM compound 20 hours pre-treatment, 0–15 μM cisplatin",potentiation of cisplatin cytotoxicity
same,cell death as single agent,"[3]; U2OS, 50 μM compound",≤ 10%
same,cytotoxicity as single agent,"[3]; U2OS, 100 μM compound",some cell death
same,EGFP-SNM1A and γH2AX foci on co-treatment with cisplatin,"[4]; U2OS EGFP-SNM1A, 50 μM compound + 50 μM cisplatin",persisted at 24 hours
same,induction of EGFP-SNM1A and γH2AX foci by compound alone,"[4]; U2OS EGFP-SNM1A, 50 μM compound alone",did not induce
same,average number of γH2AX foci at 24 hours,"[4]; U2OS, cisplatin treated with pretreatment with 50 μM 19",81.6 ± 1.7 foci
same,increase of average γH2AX foci number following pretreatment,"[4]; U2OS, cisplatin treated, 24 hours",4 fold
